Data from patent publication US11400106B2, “Methods for inhibiting microbe growth” (priority 2018, dated 2022).
Like-named read-outs stand apart in the source and are kept apart here.

Tests used:
E. coli [1] = test: Checkerboard microdilution with sodium bicarbonate against E. coli; assay type: cell-based, Escherichia coli
Experimental: (§1) In the following experiments, bacterial cells were cultured in 96-well microtiter plates in cation-adjusted Mueller-Hinton Broth (MHB) for 18 h at 37° C. The main strains used were E. coli (K-12 BW25113) (placed in stationary incubator) and S. aureus (Newman Strain) (incubated at 250 r.p.m). Knockout strains (ΔtolcC and ΔychM) were used from the Keio knockout collection (Baba et al., Construction of Escherichia coli K-12 in-frame, single-gene knockout mutants: the Keio collection. Mol Syst Biol 2, 2006 0008, doi:10.1038/msb4100050 (2006)). For MIC determination and checkerboard analyses, Clinical & Laboratory Standards Institute (CLSI) protocol was used. […] DiSC3 loading of S. aureus cells was performed as previously described (Farha et al., Collapsing the proton motive force to identify synergistic combinations against Staphylococcus aureus. Chemistry & biology 20, 1168-1178, doi:10.1016/j.chembiol.2013.07.006 (2013)). CCCP concentration of 20 μM was used. pH adjustments were made by addition of HCl or NaOH. INT assay and ATP bioluminescence assays were performed as previously described (Farha et al., Collapsing the proton motive force to identify synergistic combinations against Staphylococcus aureus. Chemistry & biology 20, 1168-1178, doi:10.1016/j.chembiol.2013.07.006 (2013)). For chemical-genomic studies, the Keio library was grown overnight in cation-adjusted MHB broth, in 384-well plates. From these, treatment plates (25 mM sodium bicarbonate, or a sterile water control) were inoculated and grown for 15 hours at 37° C., in a stationary incubator. Data was normalized according to Mangat et al (Mangat et al., Rank ordering plate data facilitates data visualization and normalization in high-throughput screening. J Biomol Screen 19, 1314-1320, doi:10.1177/1087057114534298 (2014)), with gene products and GO terms mined from EcoCyc. The GFP promoter library (Keseler et al., EcoCyc: fusing model organism databases with systems biology. Nucleic Acids Res 41, D605-612, doi:10.1093/nar/gks1027 (2013)) was grown for 18 hours at ambient temperature with the same inoculation strategy as with the Keio collection. The analysis pipeline of Zaslaver et al (Zaslaver et al., A comprehensive library of fluorescent transcriptional reporters for Escherichia coli. Nat Methods 3, 623-628, doi:10.1038/nmeth895 (2006)) was used to generate maps of promoter activity, from which lists of promoters with increased or decreased activity were compiled.
The effect of sodium bicarbonate on the activity of various antibacterial agents was investigated. Clinical isolates of various bacteria were obtained from the American Type Culture Collection (“ATCC”) and the International Health Management Associates (“IHMA”). Fractional inhibitory concentration indices (FICIs) were determined by setting up standard checkerboard broth microdilution assays in 96-well microtiter plates with serially diluted 8 (or 10) concentrations of each drug (sodium bicarbonate and the antibacterial agent). The protocol for checkerboard analyses was based on the CLSI guidelines. Plates were incubated at 37° C. for 18 hours, and optical density was read at 600 nm. At least 3 replicates were done for each query compound.
The FIC index (FICI) is the sum of the two FICs. Chemical-chemical interactions with ΣFIC of less or equal to 0.5 were deemed synergistic.
As validation, three of the antibiotic agents were further tested with checkerboard analyses. Checkerboard broth microdilution assays were set up in 96-well microtiter plates with serially diluted 8 (or 10) concentrations of each compound (sodium bicarbonate and the antibiotic). The protocol for checkerboard analyses was based on the CLSI guidelines. Plates were incubated at 37° C. for 18 hours, and optical density was read at 600 nm. At least 3 replicates were done for each query compound.

S. aureus [2] = test: microbe, parasite or virus in culture; conditions: for MIC: Staphylococcus aureus
S. aureus [3] = test: Checkerboard microdilution with nigericin; assay type: cell-based, Staphylococcus aureus
From the text: Shown are microdilution checkerboard analyses, where the extent of inhibition is shown as a heat plot, such that the darkest checkerboard square represents full bacterial growth.

E. coli [4] = test: microbe, parasite or virus in culture; assay type: cell-based, Escherichia coli
A. baumannii [5] = test: Murine model of systemic A. baumannii infection; assay type: in vivo, Acinetobacter baumannii; conditions: mice
Experimental: Mice were treated two-hours post-infection to allow complete organ occupancy by the injected cells.

Saccharomyces cerevisiae = test: MIC of pentamidine against Saccharomyces cerevisiae in YPD medium; assay type: cell-based
Experimental: Plates were incubated 24 hours and optical density read at 600 nm

E. coli MC1061 = test: Membrane potential dissipation, DiSC3(5) fluorescence spectroscopy; assay type: cell-based, Escherichia coli; conditions: E. coli grown in standard growth media or supplemented with 25 mM sodium bicarbonate; compound at MIC
Experimental: E. coli MC1061 cells were washed twice and suspended in a buffer containing 20 mM glucose and 5 mM HEPES (pH 7.2). Final resuspension was diluted to an optical density at 600 nm of 0.085. DiSC3(5) was added at a final concentration of 1 and the dye was left to stabilize (1 hr at 37° C.). Compounds were then injected at concentrations equivalent to their MIC. Fluorescent traces were measured in a fluorimeter (Photon Technology International) at the excitation and emission wavelengths of 622 and 660 nm, respectively.
Briefly, due to the potential gradient, the dye is taken up by bacteria and accumulation in the membrane leads to a decrease in fluorescence intensity due to self-quenching. A subsequent increase in fluorescence intensity is observed only if the dye is displaced into the solution as a result of dissipation of the membrane potential.

[6] = tested on: methicillin-resistant Staphylococcus aureus (MRSA) USA-300; test: Superficial skin infection model, tape-stripped mice, MRSA USA-300; assay type: in vivo
Experimental: (§2) In this model, an infection is established by disrupting the skin barrier through partial removal of the epidermal layer by stripping with adhesive tape and with subsequent application of the pathogen. Tape-stripped mice infected with 4×10^6 CFU/mL A. baumannii (FIG. 4A) or 4×10^6 CFU/mL methicillin-resistant Staphylococcus aureus (MRSA) USA-300 (FIG. 4B). […] This treatment regime was also conducted for the Vehicle (1.9% Boric Acid, pH 7) as a control (n=4). Tissue samples were collected at 25 hr post-infection (FIG. 4A) and 28 hr post-infection (FIG. 4B). […] (FIG. 5).

A. baumannii [7] = test: Superficial skin infection model, tape-stripped mice, A. baumannii; assay type: in vivo, Acinetobacter baumannii; conditions: 0.5% pentamidine topical, tissue collected 25 hr post-infection
Experimental: as §2

[8] = From the text: PMF is driven in part by a transmembrane gradient where the periplasmic side of the membrane has a greater concentration of protons. Thus, the addition of buffering agents to alter the external pH can have a significant effect on PMF. […] Steps were taken throughout the studies to confirm that bicarbonate supplemented media were at pH 7.4, and adjusted where necessary.
E. coli [9] = test: Gentamicin potency analysis with CCCP pre-treatment; assay type: cell-based, Escherichia coli; conditions: 25 mM sodium bicarbonate, CCCP pre-treated cells
Experimental: In the following experiments, bacterial cells were cultured in 96-well microtiter plates in cation-adjusted Mueller-Hinton Broth (MHB) for 18 h at 37° C. The main strains used were E. coli (K-12 BW25113) (placed in stationary incubator) and S. aureus (Newman Strain) (incubated at 250 r.p.m). […] For MIC determination and checkerboard analyses, Clinical & Laboratory Standards Institute (CLSI) protocol was used. […] DiSC3 loading of S. aureus cells was performed as previously described (Farha et al., Collapsing the proton motive force to identify synergistic combinations against Staphylococcus aureus. Chemistry & biology 20, 1168-1178, doi:10.1016/j.chembiol.2013.07.006 (2013)). CCCP concentration of 20 μM was used. pH adjustments were made by addition of HCl or NaOH. INT assay and ATP bioluminescence assays were performed as previously described (Farha et al., Collapsing the proton motive force to identify synergistic combinations against Staphylococcus aureus. Chemistry & biology 20, 1168-1178, doi:10.1016/j.chembiol.2013.07.006 (2013)). For chemical-genomic studies, the Keio library was grown overnight in cation-adjusted MHB broth, in 384-well plates. […]

Pseudomonas aeruginosa = test: MIC determination against Pseudomonas aeruginosa; assay type: cell-based
Experimental: as §1, with “The GFP promoter library (Keseler et al., EcoCyc: fusing model organism databases with systems biology. Nucleic Acids Res 41, D605-612, doi:10.1093/nar/gks1027 (2013)) was grown for 18 hours at ambient temperature with the same inoculation strategy as with the Keio collection. The analysis pipeline of Zaslaver et al (Zaslaver et al., A comprehensive library of fluorescent transcriptional reporters for Escherichia coli. Nat Methods 3, 623-628, doi:10.1038/nmeth895 (2006)) was used to generate maps of promoter activity, from which lists of promoters with increased or decreased activity were compiled.” left out

Burkhloderia cenocepacia = test: MIC determination against Burkhloderia cenocepacia; assay type: cell-based
Experimental: (§3) In the following experiments, bacterial cells were cultured in 96-well microtiter plates in cation-adjusted Mueller-Hinton Broth (MHB) for 18 h at 37° C. The main strains used were E. coli (K-12 BW25113) (placed in stationary incubator) and S. aureus (Newman Strain) (incubated at 250 r.p.m). Knockout strains (ΔtolcC and ΔychM) were used from the Keio knockout collection (Baba et al., Construction of Escherichia coli K-12 in-frame, single-gene knockout mutants: the Keio collection. Mol Syst Biol 2, 2006 0008, doi:10.1038/msb4100050 (2006)). For MIC determination and checkerboard analyses, Clinical & Laboratory Standards Institute (CLSI) protocol was used. […] DiSC3 loading of S. aureus cells was performed as previously described (Farha et al., Collapsing the proton motive force to identify synergistic combinations against Staphylococcus aureus. Chemistry & biology 20, 1168-1178, doi:10.1016/j.chembiol.2013.07.006 (2013)). CCCP concentration of 20 μM was used. pH adjustments were made by addition of HCl or NaOH. INT assay and ATP bioluminescence assays were performed as previously described (Farha et al., Collapsing the proton motive force to identify synergistic combinations against Staphylococcus aureus. Chemistry & biology 20, 1168-1178, doi:10.1016/j.chembiol.2013.07.006 (2013)). […]

Burkhloderia multivorans = test: MIC determination against Burkhloderia multivorans; assay type: cell-based
Experimental: as §3

Klebsiella pneumoniae = test: MIC determination against Klebsiella pneumoniae; assay type: cell-based
Experimental: as §1, with “The GFP promoter library (Keseler et al., EcoCyc: fusing model organism databases with systems biology. Nucleic Acids Res 41, D605-612, doi:10.1093/nar/gks1027 (2013)) was grown for 18 hours at ambient temperature with the same inoculation strategy as with the Keio collection. The analysis pipeline of Zaslaver et al (Zaslaver et al., A comprehensive library of fluorescent transcriptional reporters for Escherichia coli. Nat Methods 3, 623-628, doi:10.1038/nmeth895 (2006)) was used to generate maps of promoter activity, from which lists of promoters with increased or decreased activity were compiled.” left out

Acinetobacter baumannii = test: MIC determination against Acinetobacter baumannii; assay type: cell-based; conditions: for MIC: Acinetobacter baumannii
Experimental: as §1

Enterococcus faecalis = test: MIC determination against Enterococcus faecalis; assay type: cell-based
[10] = read-out: MIC, tissue culture media formulated to mimic the natural environment

## CO[C@@H]1[C@@H](OC(N)=O)[C@@H](O)[C@H](Oc2ccc3c(O)c(NC(=O)c4ccc(O)c(CC=C(C)C)c4)c(=O)oc3c2C)OC1(C)C [Novobiocin]
E. coli [1]
  interaction with sodium bicarbonate (checkerboard): suppressed
S. aureus [2]
  MIC, S. aureus, MHB+: 0.5
S. aureus [2]; S. aureus, result in words
  effect of 25 mM sodium bicarbonate on antibacterial activity: suppressed
S. aureus [2]; 18 h, read-out: MIC, S. aureus, MHB−
  MIC: 0.031 µg/mL
S. aureus [3]
  interaction with nigericin (checkerboard): antagonistic interactions
E. coli [4]
  effect of 25 mM sodium bicarbonate on antibacterial activity: suppressed
E. coli [4]; Escherichia coli, 18 h, MHB in the absence of sodium bicarbonate, read-out: MIC, E. coli, MHB−
  MIC: 32 µg/mL

## N=C(N)c1ccc(OCCCCCOc2ccc(C(=N)N)cc2)cc1 [pentamidine]
E. coli [1]
  interaction with sodium bicarbonate (checkerboard): synergistic interaction
A. baumannii [5]; 50 mg/kg pentamidine IP, single dose 2 h post-infection, in the absence of novobiocin
  rescue of animals: 80%
A. baumannii [5]; pentamidine alone
  A. baumannii organ load (e.g., spleen) decrease: seven
Saccharomyces cerevisiae; 25 mM sodium bicarbonate
  MIC: 4 µg/mL
Saccharomyces cerevisiae; 50 mM sodium bicarbonate
  MIC: 2 µg/mL
Saccharomyces cerevisiae; no sodium bicarbonate
  MIC: 256 µg/mL
Gram-negative organisms
  potentiation of antibacterial activity in the presence of bicarbonate, on average: 40 fold
E. coli MC1061
  effect on membrane potential: dissipated the membrane potential
[6]; 0.5% pentamidine topical, tissue collected 28 hr post-infection
  reduction in CFU/mL: 5 log
[6]; topical 0.5% aqueous pentamidine solution with or without bicarbonate (50 mM)
  effect of addition of bicarbonate (50 mM) on antibacterial efficacy in clearing an MRSA infection: increased the antibacterial efficacy
Gram-positive organisms
  potentiation of antibacterial activity in the presence of bicarbonate, on average: 50 fold
A. baumannii [7]
  reduction in CFU/mL compared to vehicle-treated mice: 4 log

## O=P([O-])([O-])[O-].[Na+].[Na+].[Na+] [trisodium phosphate]
[8]; pH not adjusted (pH~10)
  effect on activity of dirithromycin, pH not adjusted: potentiated the activity of dirithromycin
[8]; pH of the medium adjusted to 7.2
  effect on activity of dirithromycin, pH adjusted: loss of synergy

## Gentamicin
S. aureus [2]
  Fold, S. aureus: 2
S. aureus [2]; MHB in the absence of sodium bicarbonate
  MIC, S. aureus, MHB−: 2
S. aureus [2]; MHB in the presence of 25 mM sodium bicarbonate
  MIC, S. aureus, MHB+: 1
E. coli [4]
  Fold, E. coli: 8
E. coli [9]
  effect of CCCP pre-incubation on potentiation by sodium bicarbonate: reversed the potentiation

## N=C(N)c1ccc(OCCCCCOc2ccc(C(=N)N)cc2)cc1 [pentamidine isethionate]
Pseudomonas aeruginosa; read-out: MIC, MHB
  MIC: > 200 µg/mL
Pseudomonas aeruginosa; [10]
  MIC: 12.5 µg/mL
E. coli [1]
  interaction with sodium bicarbonate (checkerboard): greatly potentiated
Burkhloderia cenocepacia; read-out: MIC, MHB
  MIC: > 200 µg/mL
Burkhloderia cenocepacia; [10]
  MIC: 12.5 µg/mL
Burkhloderia multivorans; read-out: MIC, MHB
  MIC: > 200 µg/mL
Burkhloderia multivorans; [10]
  MIC: 12.5 µg/mL
Klebsiella pneumoniae; read-out: MIC, MHB
  MIC: > 200 µg/mL
Klebsiella pneumoniae; [10]
  MIC: 12.5 µg/mL
S. aureus [2]; read-out: MIC, MHB
  MIC: 12.5 µg/mL
S. aureus [2]; [10]
  MIC: < 0.1 µg/mL
E. coli [4]; Escherichia coli
  MIC, tissue culture media formulated to mimic the natural environment: 1.5 µg/mL
E. coli [4]; Escherichia coli, Mueller Hinton Broth, read-out: MIC, MHB
  MIC: 200 µg/mL
E. coli [4]; Escherichia coli, read-out: MIC, tissue culture media formulated to mimic the natural environment
  MIC: 1 µg/mL
Acinetobacter baumannii; A. baumannii, versus standard media
  enhanced potency in tissue culture media formulated to mimic the natural environment: > 50 fold
Acinetobacter baumannii; read-out: MIC, MHB
  MIC: 100 µg/mL
Acinetobacter baumannii; [10]
  MIC: 12.5 µg/mL
Enterococcus faecalis; read-out: MIC, MHB
  MIC: 25 µg/mL
Enterococcus faecalis; [10]
  MIC: 3.1 µg/mL
